Data taken from patent US20240141020A1, “METHOD FOR MODULATING AFUCOSLYATION OF AN ANTIBODY PRODUCT” (LONZA BEND INC., priority 2021, published 2024).

Test system: CHO GS-KO cells
Assay: Modulation of afucosylation of a model IgG antibody produced by CHO GS-KO cells in supplemented culture medium (shake flasks, 5 days, LC-MS glycan profile)
Assay type: cell-based, Chinese hamster
Conditions: for Average % Afucosylation: mAb harvested day 5, G0/(G0F+G0), n = 3 technical replicates, control 5.21%
Description: CHO GS-KO cells were cultured in chemically defined culture medium supplemented with different chemicals at different concentrations to test the impact of those chemicals on the N-linked glycan profile of the product produced by the cultures. The product produced by this cell line was a model IgG antibody. • 1. Prepare culture media with supplemented chemicals • 2. Culture cells in media from (1) • 3. Harvest mAb produced in cultures and measure glycan profile of purified, reduced, and de-salted mAb products • 4. Determine statistical impact of chemical supplements on glycan product quality The chemicals that were supplemented to the medium included: • None (Control) • Mannose • N-Acetylmannosamine (ManNAc)+Galactose Concentrated stock solutions of mannose, ManNAc, and galactose were prepared and added into culture media. Specific volumes of the stock solution was supplemented to the culture media to generate the conditions in Table 1: GS-KO cells were inoculated at a density of 2×10^5 cells/mL into vented shake flasks containing medium from Table 1. Cultures were grown for five days in a temperature, CO2, and humidity-controlled incubator. Daily samples were taken to monitor the culture health. mAb product was harvested from day 5 shake flask cultures and purified through Protein A capture. Purified mAb was prepared for glycan analysis by reducing mAb to separate heavy and light chains. Reduced mAb was injected onto an LC-MS where the reduced mAb was de-salted by passing through a reverse-phase de-salting column on the LC prior to injection into a time of flight mass spectrometer (TOF MS) (Agilent 6230B). Three injections per sample was performed for technical replicates. Protein Metrics Software was used to process the resulting LC-MS data and the relative abundance of each glycan species was reported. The glycan species measured in processing included: G0, G0F, G1F, G2F, G1F+NeuAc, […]+NeuAc, […]+2NeuAc. Percent afucosulated mAb was calculated by dividing the total amount of afucosylated species by the sum of afucosylate and fucosylated species (G0/[…]+G0).

Structure (SMILES) | afucosylation compared to control (in words) (higher concentration of ManNAc (10 uM), with 1 mM galactose) | Average % Afucosylation (culture medium + 1 g/L Mannose) [%] | Average % Afucosylation (culture medium + 3 g/L Mannose) [%] | Average % Afucosylation (culture medium + 6 g/L Mannose) [%] | high mannose species of the antibody product (in words) (mannose in amounts greater than about 1 g/L) | % afucosylated mAb compared to control (in words) (supplementation of culture medium with mannose, 1, 3, 6 g/L)
CC(=O)N[C@@H]1C(O)O[C@H](CO)[C@@H](O)[C@@H]1O (stereo partly drawn) [ManNAc, N-Acetylmannosamine] | decreasing afucosylation slightly |  |  |  |  | 
O=C[C@@H](O)[C@@H](O)[C@H](O)[C@H](O)CO [Mannose, mannose] |  | 5.63 | 6.10 | 7.27 | does not appear to result in an increase in high mannose species | significantly increased
